Test results from article PMC12723328, “Designing Programmable Peptide Nucleic Acid‐based Nanovaccines for Anticancer Immune Activation” (Small (Weinheim an Der Bergstrasse, Germany), 2025).

How the values were obtained:
[1] = Zeta potential in H2O (Malvern DLS zetasizer); assay type: physicochemical; details: OVA8 or CpG 5 µM, mean ± SD, n = 3
Text: (§1) The size and zeta potential of LPn[OVA8/CpG/LLP2A] in H2O were detected by Malvern DLS zetasizer with the equivalent concentration of OVA8 or CpG at 5 µΜ. The morphology of LPn[OVA8/CpG/LLP2A] was visualized by transmission electron microscope (TEM, 80 kV FEI Talos 120C).

[2] = test system: co‐culture of RF33.70 cells and the activated BMDCs; experiment: IL-2 secretion from co-culture of pretreated BMDCs and RF33.70 cells (ELISA); assay type: cell-based, mouse; details: BMDCs pretreated 16 h at 1 µM, co-culture with RF33.70 16 h, n = 3
Procedure: The differentiation of BMDC from bone marrow cells was performed as previously described.^[ [48] ^] 2 × 10^4 cells/well BMDCs were suspended in 200 µL medium without adding IL‐2 and IL‐4. BMDCs were treated with LPn[OVA8/CpG/LLP2A] containing 1 or 2 µM of OVA8 for 16 h. Each group contains approximately equivalent concentrations of CpG and OVA8 based on the data in Table S1 (Supporting Information). After that, the cells were centrifuged at 320 g for 5 min to remove the uninternalized drugs. Then the BMDC cells were resuspended in RPMI medium and were co‐incubated with 10 × 10^4 cells/well of RF33.70 cells for another 16 h. After that, the medium supernatant was collected. The IL‐2 concentration was measured by IL‐2 Mouse ELISA Kit (Thermo Fisher).
For the blocking experiment, BMDC cells were pre‐incubated with an excess of LLP2A‐P4 (100 µM) for 1 h. Then the cells were washed three times with PBS, before the treatment of 1 µM LP11[OVA8/CpG/LLP2A] for 16 h. After that, the cells were washed three times with PBS to get rid of the uninternalized drugs, followed by co‐culturing with RF33.70 cells. The IL‐2 level was quantified by ELISA as mentioned above.

[3] = Hydrodynamic size by DLS (Malvern zetasizer) in water; assay type: physicochemical; details: in H2O, OVA8 or CpG 5 µM, mean ± SD, n = 3
Procedure: The size and the dispersity of each of the three nanoconstructs in water were determined by Malvern zetasizer. […] (195.1 nm ± 61.1). […] To better understand how PVN nanoparticles are formed, we used LP11[OVA8/CpG/LLP2A] as an example and analyzed the hydrodynamic size, morphology, and spatial distribution of its components in various LP11‐based incomplete PVNs. It is well‐known that Class A CpG ODNs can self‐assemble into nanosized multimers because of their palindromic and poly‐guanine (G) tails.^[ [19], [21], [22] ^] […] To determine whether G‐quadruplex structures formed in the CpG ODN nanoclusters, we used nuclear magnetic resonance (NMR) to detect the CpG structure. […] Furthermore, hybridization with CpG, P3‐OVA8, and LLP2A‐P4 payloads increased the size of the final nanoparticle to 132.6 ± 71.7 nm.
as §1

| Substance | zeta potential [1] | IL‐2 production [2] | average hydrodynamic size [3] |
| --- | --- | --- | --- |
| CCCCGTATGCA [LP11] | ~0 mV | barely induced |  |
| CpG: Class A CpG oligonucleotide, toll‐like receptor 9 agonist; 5′ ggGGTCAACGTTGAgggggg 3′, lowercase phosphorothioate (DNA GGGGTCAACGTTGAGGGGGG; DNA, linkages s2 o12 s5 (s phosphorothioate, o phosphodiester), methylation of C not given here; further chemistry not fully specified) | −24.3 ± 13.3 mV | barely induced | 62.3 ± 14.2 nm |
| TAC‐K‐SIINFEKL [P3‐OVA8] | ~0 mV |  |  |
